Measurements published in ChEMBL document CHEMBL1138574, “Regioselective synthesis and stereochemical structure of anti-tumor active dispiro[3H-indole-3,2'-pyrrolidine-3',3''-piperidine]-2(1H),4''-diones” (2009).

system: Rattus norvegicus; assay: Antiinflammatory activity in Wister albino rat assessed as inhibition of carrageenan-induced paw oedema at 10 mg/kg, ip administered 1 hr before carrageenan challenge measured after 24 hrs of induction of inflammation relative to control; format: functional; conditions: route intraperitoneal

| SMILES | inhibition in vivo at 10 mg/kg [%] |
| --- | --- |
| COc1ccc2c(c1)c(CC(=O)O)c(C)n2C(=O)c1ccc(Cl)cc1 [INDOMETHACIN] | 57 |

system: Rattus norvegicus; assay: Antiinflammatory activity in Wister albino rat assessed as inhibition of carrageenan-induced paw oedema at 10 mg/kg, ip administered 1 hr before carrageenan challenge measured after 1 hr of induction of inflammation relative to control; format: functional; conditions: route intraperitoneal

| SMILES | inhibition in vivo at 10 mg/kg [%] |
| --- | --- |
| COc1ccc2c(c1)c(CC(=O)O)c(C)n2C(=O)c1ccc(Cl)cc1 [INDOMETHACIN] | 72.9 |

system: Rattus norvegicus; assay: Antiinflammatory activity in Wister albino rat assessed as inhibition of carrageenan-induced paw oedema at 50 mg/kg, ip administered 1 hr before carrageenan challenge measured after 3 hrs of induction of inflammation relative to control; format: functional; conditions: route intraperitoneal

| SMILES | inhibition in vivo at 50 mg/kg [%] |
| --- | --- |
| CN1C/C(=C\c2ccccc2)C(=O)[C@]2(C1)[C@@H](c1ccccc1)CN(C)[C@@]21C(=O)Nc2ccccc21 | 71.4 |
| CN1C/C(=C\c2ccccc2)C(=O)[C@]2(C1)[C@@H](c1ccccc1)CN(C)[C@@]21C(=O)N(C)c2ccccc21 | 75.6 |
| CN1C/C(=C\c2ccc(F)cc2)C(=O)[C@]2(C1)[C@@H](c1ccc(F)cc1)CN(C)[C@@]21C(=O)Nc2ccccc21 | 70.9 |
| CN1C/C(=C\c2ccc(F)cc2)C(=O)[C@]2(C1)[C@@H](c1ccc(F)cc1)CN(C)[C@@]21C(=O)N(C)c2ccccc21 | 55.8 |
| CN1C/C(=C\c2ccc(Br)cc2)C(=O)[C@]2(C1)[C@@H](c1ccc(Br)cc1)CN(C)[C@@]21C(=O)Nc2ccccc21 | 65.2 |
| CN1C/C(=C\c2ccc(-c3cccs3)cc2)C(=O)[C@]2(C1)[C@@H](c1ccc(-c3cccs3)cc1)CN(C)[C@@]21C(=O)Nc2ccccc21 | 74.8 |
| Cc1ccc(/C=C2\CN(C)C[C@@]3(C2=O)[C@@H](c2ccc(C)cc2)CN(C)[C@@]32C(=O)Nc3ccccc32)cc1 | 50.9 |
| CN1C/C(=C\c2ccc(Br)cc2)C(=O)[C@]2(C1)[C@@H](c1ccc(Br)cc1)CN(C)[C@@]21C(=O)N(C)c2ccccc21 | 47.6 |
| Cc1ccc(/C=C2\CN(C)C[C@@]3(C2=O)[C@@H](c2ccc(C)cc2)CN(C)[C@@]32C(=O)N(C)c3ccccc32)cc1 | 65 |

system: Rattus norvegicus; assay: Antiinflammatory activity in Wister albino rat assessed as inhibition of carrageenan-induced paw oedema at 10 mg/kg, ip administered 1 hr before carrageenan challenge measured after 3 hrs of induction of inflammation relative to control; format: functional; conditions: route intraperitoneal

| SMILES | inhibition in vivo at 10 mg/kg [%] |
| --- | --- |
| COc1ccc2c(c1)c(CC(=O)O)c(C)n2C(=O)c1ccc(Cl)cc1 [INDOMETHACIN] | 61.3 |

system: Rattus norvegicus; assay: Antiinflammatory activity in Wister albino rat assessed as inhibition of carrageenan-induced paw oedema at 10 mg/kg, ip administered 1 hr before carrageenan challenge measured after 4 hrs of induction of inflammation relative to control; format: functional; conditions: route intraperitoneal

| SMILES | inhibition in vivo at 10 mg/kg [%] |
| --- | --- |
| COc1ccc2c(c1)c(CC(=O)O)c(C)n2C(=O)c1ccc(Cl)cc1 [INDOMETHACIN] | 56.5 |

system: Rattus norvegicus; assay: Antiinflammatory activity in Wister albino rat assessed as inhibition of carrageenan-induced paw oedema at 50 mg/kg, ip administered 1 hr before carrageenan challenge measured after 4 hrs of induction of inflammation relative to control; format: functional; conditions: route intraperitoneal

| SMILES | inhibition in vivo at 50 mg/kg [%] |
| --- | --- |
| CN1C/C(=C\c2ccccc2)C(=O)[C@]2(C1)[C@@H](c1ccccc1)CN(C)[C@@]21C(=O)Nc2ccccc21 | 70.9 |
| CN1C/C(=C\c2ccccc2)C(=O)[C@]2(C1)[C@@H](c1ccccc1)CN(C)[C@@]21C(=O)N(C)c2ccccc21 | 68.8 |
| CN1C/C(=C\c2ccc(F)cc2)C(=O)[C@]2(C1)[C@@H](c1ccc(F)cc1)CN(C)[C@@]21C(=O)Nc2ccccc21 | 61.5 |
| CN1C/C(=C\c2ccc(F)cc2)C(=O)[C@]2(C1)[C@@H](c1ccc(F)cc1)CN(C)[C@@]21C(=O)N(C)c2ccccc21 | 47.2 |
| CN1C/C(=C\c2ccc(Br)cc2)C(=O)[C@]2(C1)[C@@H](c1ccc(Br)cc1)CN(C)[C@@]21C(=O)Nc2ccccc21 | 66.8 |
| CN1C/C(=C\c2ccc(-c3cccs3)cc2)C(=O)[C@]2(C1)[C@@H](c1ccc(-c3cccs3)cc1)CN(C)[C@@]21C(=O)Nc2ccccc21 | 71.4 |
| Cc1ccc(/C=C2\CN(C)C[C@@]3(C2=O)[C@@H](c2ccc(C)cc2)CN(C)[C@@]32C(=O)Nc3ccccc32)cc1 | 50.7 |
| CN1C/C(=C\c2ccc(Br)cc2)C(=O)[C@]2(C1)[C@@H](c1ccc(Br)cc1)CN(C)[C@@]21C(=O)N(C)c2ccccc21 | 46.8 |
| Cc1ccc(/C=C2\CN(C)C[C@@]3(C2=O)[C@@H](c2ccc(C)cc2)CN(C)[C@@]32C(=O)N(C)c3ccccc32)cc1 | 68.8 |

system: Rattus norvegicus; assay: Antiinflammatory activity in Wister albino rat assessed as inhibition of carrageenan-induced paw oedema at 50 mg/kg, ip administered 1 hr before carrageenan challenge measured after 4 hrs of induction of inflammation relative to indomethacin; format: functional; conditions: route intraperitoneal

| SMILES | inhibition in vivo at 50 mg/kg [%] |
| --- | --- |
| CN1C/C(=C\c2ccccc2)C(=O)[C@]2(C1)[C@@H](c1ccccc1)CN(C)[C@@]21C(=O)Nc2ccccc21 | 126 |
| CN1C/C(=C\c2ccccc2)C(=O)[C@]2(C1)[C@@H](c1ccccc1)CN(C)[C@@]21C(=O)N(C)c2ccccc21 | 122 |
| CN1C/C(=C\c2ccc(F)cc2)C(=O)[C@]2(C1)[C@@H](c1ccc(F)cc1)CN(C)[C@@]21C(=O)Nc2ccccc21 | 109 |
| CN1C/C(=C\c2ccc(F)cc2)C(=O)[C@]2(C1)[C@@H](c1ccc(F)cc1)CN(C)[C@@]21C(=O)N(C)c2ccccc21 | 83.5 |
| CN1C/C(=C\c2ccc(Br)cc2)C(=O)[C@]2(C1)[C@@H](c1ccc(Br)cc1)CN(C)[C@@]21C(=O)Nc2ccccc21 | 118 |
| CN1C/C(=C\c2ccc(-c3cccs3)cc2)C(=O)[C@]2(C1)[C@@H](c1ccc(-c3cccs3)cc1)CN(C)[C@@]21C(=O)Nc2ccccc21 | 126 |
| Cc1ccc(/C=C2\CN(C)C[C@@]3(C2=O)[C@@H](c2ccc(C)cc2)CN(C)[C@@]32C(=O)Nc3ccccc32)cc1 | 89.7 |
| CN1C/C(=C\c2ccc(Br)cc2)C(=O)[C@]2(C1)[C@@H](c1ccc(Br)cc1)CN(C)[C@@]21C(=O)N(C)c2ccccc21 | 82.8 |
| Cc1ccc(/C=C2\CN(C)C[C@@]3(C2=O)[C@@H](c2ccc(C)cc2)CN(C)[C@@]32C(=O)N(C)c3ccccc32)cc1 | 122 |

system: Rattus norvegicus; assay: Antiinflammatory activity in Wister albino rat assessed as inhibition of carrageenan-induced paw oedema at 50 mg/kg, ip administered 1 hr before carrageenan challenge measured after 2 hrs of induction of inflammation relative to control; format: functional; conditions: route intraperitoneal

| SMILES | inhibition in vivo at 50 mg/kg [%] |
| --- | --- |
| CN1C/C(=C\c2ccccc2)C(=O)[C@]2(C1)[C@@H](c1ccccc1)CN(C)[C@@]21C(=O)Nc2ccccc21 | 73.3 |
| CN1C/C(=C\c2ccccc2)C(=O)[C@]2(C1)[C@@H](c1ccccc1)CN(C)[C@@]21C(=O)N(C)c2ccccc21 | 70.7 |
| CN1C/C(=C\c2ccc(F)cc2)C(=O)[C@]2(C1)[C@@H](c1ccc(F)cc1)CN(C)[C@@]21C(=O)Nc2ccccc21 | 78.4 |
| CN1C/C(=C\c2ccc(F)cc2)C(=O)[C@]2(C1)[C@@H](c1ccc(F)cc1)CN(C)[C@@]21C(=O)N(C)c2ccccc21 | 62 |
| CN1C/C(=C\c2ccc(Br)cc2)C(=O)[C@]2(C1)[C@@H](c1ccc(Br)cc1)CN(C)[C@@]21C(=O)Nc2ccccc21 | 69.3 |
| CN1C/C(=C\c2ccc(-c3cccs3)cc2)C(=O)[C@]2(C1)[C@@H](c1ccc(-c3cccs3)cc1)CN(C)[C@@]21C(=O)Nc2ccccc21 | 70.7 |
| Cc1ccc(/C=C2\CN(C)C[C@@]3(C2=O)[C@@H](c2ccc(C)cc2)CN(C)[C@@]32C(=O)Nc3ccccc32)cc1 | 52.1 |
| CN1C/C(=C\c2ccc(Br)cc2)C(=O)[C@]2(C1)[C@@H](c1ccc(Br)cc1)CN(C)[C@@]21C(=O)N(C)c2ccccc21 | 49.1 |
| Cc1ccc(/C=C2\CN(C)C[C@@]3(C2=O)[C@@H](c2ccc(C)cc2)CN(C)[C@@]32C(=O)N(C)c3ccccc32)cc1 | 62 |

system: Rattus norvegicus; assay: Antiinflammatory activity in Wister albino rat assessed as inhibition of carrageenan-induced paw oedema at 50 mg/kg, ip administered 1 hr before carrageenan challenge measured after 24 hrs of induction of inflammation relative to control; format: functional; conditions: route intraperitoneal

| SMILES | inhibition in vivo at 50 mg/kg [%] |
| --- | --- |
| CN1C/C(=C\c2ccccc2)C(=O)[C@]2(C1)[C@@H](c1ccccc1)CN(C)[C@@]21C(=O)Nc2ccccc21 | 65.1 |
| CN1C/C(=C\c2ccccc2)C(=O)[C@]2(C1)[C@@H](c1ccccc1)CN(C)[C@@]21C(=O)N(C)c2ccccc21 | 26.5 |
| CN1C/C(=C\c2ccc(F)cc2)C(=O)[C@]2(C1)[C@@H](c1ccc(F)cc1)CN(C)[C@@]21C(=O)Nc2ccccc21 | 57 |
| CN1C/C(=C\c2ccc(F)cc2)C(=O)[C@]2(C1)[C@@H](c1ccc(F)cc1)CN(C)[C@@]21C(=O)N(C)c2ccccc21 | 27.2 |
| CN1C/C(=C\c2ccc(Br)cc2)C(=O)[C@]2(C1)[C@@H](c1ccc(Br)cc1)CN(C)[C@@]21C(=O)Nc2ccccc21 | 82.7 |
| CN1C/C(=C\c2ccc(-c3cccs3)cc2)C(=O)[C@]2(C1)[C@@H](c1ccc(-c3cccs3)cc1)CN(C)[C@@]21C(=O)Nc2ccccc21 | 79.8 |
| Cc1ccc(/C=C2\CN(C)C[C@@]3(C2=O)[C@@H](c2ccc(C)cc2)CN(C)[C@@]32C(=O)Nc3ccccc32)cc1 | 22.1 |
| CN1C/C(=C\c2ccc(Br)cc2)C(=O)[C@]2(C1)[C@@H](c1ccc(Br)cc1)CN(C)[C@@]21C(=O)N(C)c2ccccc21 | 83.5 |
| Cc1ccc(/C=C2\CN(C)C[C@@]3(C2=O)[C@@H](c2ccc(C)cc2)CN(C)[C@@]32C(=O)N(C)c3ccccc32)cc1 | 57 |

system: Rattus norvegicus; assay: Antiinflammatory activity in Wister albino rat assessed as inhibition of carrageenan-induced paw oedema at 50 mg/kg, ip administered 1 hr before carrageenan challenge measured after 1 hr of induction of inflammation relative to control; format: functional; conditions: route intraperitoneal

| SMILES | inhibition in vivo at 50 mg/kg [%] |
| --- | --- |
| CN1C/C(=C\c2ccccc2)C(=O)[C@]2(C1)[C@@H](c1ccccc1)CN(C)[C@@]21C(=O)Nc2ccccc21 | 77 |
| CN1C/C(=C\c2ccccc2)C(=O)[C@]2(C1)[C@@H](c1ccccc1)CN(C)[C@@]21C(=O)N(C)c2ccccc21 | 68 |
| CN1C/C(=C\c2ccc(F)cc2)C(=O)[C@]2(C1)[C@@H](c1ccc(F)cc1)CN(C)[C@@]21C(=O)Nc2ccccc21 | 80.1 |
| CN1C/C(=C\c2ccc(F)cc2)C(=O)[C@]2(C1)[C@@H](c1ccc(F)cc1)CN(C)[C@@]21C(=O)N(C)c2ccccc21 | 75.8 |
| CN1C/C(=C\c2ccc(Br)cc2)C(=O)[C@]2(C1)[C@@H](c1ccc(Br)cc1)CN(C)[C@@]21C(=O)Nc2ccccc21 | 77.7 |
| CN1C/C(=C\c2ccc(-c3cccs3)cc2)C(=O)[C@]2(C1)[C@@H](c1ccc(-c3cccs3)cc1)CN(C)[C@@]21C(=O)Nc2ccccc21 | 68 |
| Cc1ccc(/C=C2\CN(C)C[C@@]3(C2=O)[C@@H](c2ccc(C)cc2)CN(C)[C@@]32C(=O)Nc3ccccc32)cc1 | 69.2 |
| CN1C/C(=C\c2ccc(Br)cc2)C(=O)[C@]2(C1)[C@@H](c1ccc(Br)cc1)CN(C)[C@@]21C(=O)N(C)c2ccccc21 | 53.5 |
| Cc1ccc(/C=C2\CN(C)C[C@@]3(C2=O)[C@@H](c2ccc(C)cc2)CN(C)[C@@]32C(=O)N(C)c3ccccc32)cc1 | 53.5 |

system: Rattus norvegicus; assay: Antiinflammatory activity in Wister albino rat assessed as inhibition of carrageenan-induced paw oedema at 10 mg/kg, ip administered 1 hr before carrageenan challenge measured after 2 hrs of induction of inflammation relative to control; format: functional; conditions: route intraperitoneal

| SMILES | inhibition in vivo at 10 mg/kg [%] |
| --- | --- |
| COc1ccc2c(c1)c(CC(=O)O)c(C)n2C(=O)c1ccc(Cl)cc1 [INDOMETHACIN] | 70.7 |
